≈ marks a conversion by molar mass, not a printed value.
What was measured:
[1] = test system: Mycobacterium tuberculosis TN565; assay type: cell-based
[2] = test system: Mycobacterium tuberculosis TN1618; assay type: cell-based

SMILES	MIC TN565 (RESISTANT) [1] [µg/mL]	MIC TN1618 (RESISTANT) [2] [µg/mL]
CC(C)C[C@H](NC(=O)N[C@@H](Cc1c[nH]c2ccccc12)C(=O)O)C(=O)N[C@H](C(=O)NC[C@H]1C[C@@H](O)[C@H](n2ccc(=O)[nH]c2=O)O1)[C@H](C)N(C)C(=O)CN [Compound 109]	10 (≈ 13.5 µM)	10 (≈ 13.5 µM)
CSCCC(NC(=O)NC(Cc1ccc(O)cc1)C(=O)O)C(=O)NC(C(=O)NCC1CC(O)C(n2ccc(=O)[nH]c2=O)O1)C(C)N(C)C(=O)C(C)N [Compound 115, 1-[5′[(2S,3S)-N^3-L-Alanyl-N^2-[N-[[(1S)-1-carboxy-4-hydroxyphenethyl)-carbamoyl]-L-methionyl]-N^3-methyl-2,3-diaminobutyramido]-3′,5′-dideoxy-α-L-arabinofuranosyl]uracil]	>30	30 (≈ 40 µM)
CC(N)C(=O)N(C)C(C)C(NC(=O)C(Cc1ccccc1)NC(=O)NC(Cc1ccc2ccccc2c1)C(=O)O)C(=O)NCC1CC(O)C(n2ccc(=O)[nH]c2=O)O1 [Compound 133, 1-[5′-[(2S,3S)-N^3-L-Alanyl-N^2-[N-[[(1S)-1-carboxy-2-naphthalenethyl]carbamoyl]-L-phenylalanyl]-N^3-methyl-2,3-diaminobutyramido]-3′,5′-dideoxy-α-L-arabinofuranosyl]uracil]	30 (≈ 37.5 µM)	10 (≈ 12.5 µM)
CC(N)C(=O)N(C)C(C)C(NC(=O)C(Cc1ccc(C(F)(F)F)cc1)NC(=O)NC(Cc1c[nH]c2ccccc12)C(=O)O)C(=O)NCC1CC(O)C(n2ccc(=O)[nH]c2=O)O1 [Compound 146, 1-[5′-[(2S,3S)-N^3-L-Alanyl-N^2-[N-[[(1S)-1-carboxy-2-indol-3-ylethyl]carbamoyl]-L-4-(trifluoromethyl)phenylalanyl]-N^3-methyl-2,3-diaminobutyramido]-3′,5′-dideoxy-α-L-arabinofuranosyl]uracil]	10 (≈ 11.7 µM)	10 (≈ 11.7 µM)
CC(N)C(=O)N(C)C(C)C(NC(=O)C(Cc1ccc(-c2ccccc2)cc1)NC(=O)NC(Cc1c[nH]c2ccccc12)C(=O)O)C(=O)NCC1CC(O)C(n2ccc(=O)[nH]c2=O)O1 [Compound 155, 1-[5′-[(2S,3S)-N^3-L-Alanyl-N^2-[N-[[(1S)-1-carboxy-2-indol-3-ylethyl)carbamoyl]-L-4-biphenylalanyl]-N^3-methyl-2,3-diaminobutyramidol-3′,5′-dideoxy-α-L-arabinofuranosyl]uracil]	10 (≈ 11.5 µM)	10 (≈ 11.5 µM)
CC(N)C(=O)N(C)C(C)C(NC(=O)C(Cc1ccc(F)cc1)NC(=O)NC(Cc1ccc(O)cc1)C(=O)O)C(=O)NCC1CC(O)C(n2ccc(=O)[nH]c2=O)O1 [Compound 157, 1-[5′-[(2S,3S)-N^3-L-Alanyl-N^2-[N-[[(1S)-1-carboxy-4-hydroxyphenethyl]carbamoyl]-L-4-fluorophenylalanyl]-N^3-methyl-2,3-diaminobutyramido]-3′,5′-dideoxy-α-L-arabinofuranosyl]uracil]	10 (≈ 12.7 µM)	10 (≈ 12.7 µM)
CC(N)C(=O)N(C)C(C)C(NC(=O)C(Cc1ccc(F)cc1)NC(=O)NC(Cc1c[nH]c2ccccc12)C(=O)O)C(=O)NCC1CC(O)C(n2ccc(=O)[nH]c2=O)O1 [Compound 158, 1-[5′-[(2S,3S)-N^3-L-Alanyl-N^2-[N-[[(1S)-1-carboxy-2-indol-3-ylethyl]carbamoyl]-L-4-fluorophenylalanyl]-N^3-methyl-2,3-diaminobutyramidol-3′,5′-dideoxy-α-L-arabinofuranosyl]uracil]	10 (≈ 12.4 µM)	10 (≈ 12.4 µM)
CC(C)CC(N)C(=O)N(C)C(C)C(NC(=O)C(Cc1ccccc1)NC(=O)NC(Cc1c[nH]c2ccccc12)C(=O)O)C(=O)NCC1CC(O)C(n2ccc(=O)[nH]c2=O)O1 [Compound 159, 1-[5′-[(2S,3S)-N^2-[N-[[(1S)-1-Carboxy-2-indol-3-ylethyl]carbamoyl]-L-phenylalanyl]l-N^3-L-leucyl-N^3-methyl-2,3-diaminobutyramido]-3′,5′-dideoxy-α-L-arabinofuranosyl]uracil]	30 (≈ 36.1 µM)	10 (≈ 12 µM)
CC(N)C(=O)N(C)C(C)C(NC(=O)C(Cc1ccccc1)NC(=O)NC(Cc1c[nH]c2ccccc12)C(=O)O)C(=O)NCC1CC(O)C(n2ccc(=O)[nH]c2=O)O1 [Compound 164, 1-[5′-[(2S,3S)-N^3-L-Alanyl-N^2-[N-[[(1S)-1-carboxy-2-indol-3-ylethyl]carbamoyl]-L-phenylalanyl]-N^3-methyl-2,3-diaminobutyramido]-3′,5′-dideoxy-α-L-arabinofuranosyl]uracil]	10 (≈ 12.7 µM)	10 (≈ 12.7 µM)
C[C@H](NC(=O)N[C@@H](Cc1c[nH]c2ccccc12)C(=O)O)C(=O)N[C@H](C(=O)N/C=C1/C[C@@H](O)[C@H](n2ccc(=O)[nH]c2=O)O1)[C@H](C)N(C)C(=O)[C@@H](N)Cc1cccc(O)c1 [Pacidamycin 4, reference compound]	>30	>30

— patent US6482921B1, “Uridyl peptide antibiotic (UPA) derivatives, their synthesis and use” (Essential Therapeutics, Inc., priority 1999, dated 2002)
